In patent US20240277637A1, “CAPSAICIN DERIVATIVES IN THE TREATMENT OF IDIOPATHIC PULMONARY FIBROSIS” (aXichem AB, priority 2021, published 2024):

What was measured:
Format in all cases: cell-based
[1] = test system: human corneal epithelial cells; assay: Clonogenic cell survival assay, corneal epithelial cells with PDGF-AB (Example 1); details: 10 ng/ml PDGF-AB, 14 days
Method: Primary isolated human corneal epithelial cells; Normal, Human cells (ATCC® PCS-700-010™) were maintained in culture at 37° C. with 5% CO2 and 95% humidity in serum reduced (5% fetal calf serum) modified promocell media (MPM) supplemented with 4 ng/ml fibronectin (FN), 2 ng/ml human recombinant vascular endothelial growth factor (VEGF) and 4 ng/ml basic fibroblast growth factor (bFGF).
A clonogenic cell survival assay determines the ability of a cell to proliferate indefinitely. The effects of phenylcapsaicin (2) on clonogenic survival of corneal epithelial cells was investigated by plating the cells with increasing numbers (102 to 5×104) in 25 cm^2 flasks. SU9518, a known inhibitor PDGF that has shown the ability to reduce radiation-induced fibroblast and endothelial cell activation, was used as the positive control. The cells were incubated with 0-10 μM of phenylcapsaicin and SU9518 separately in the presence of 10 ng/ml PDGF-AB. The flasks were returned to the incubator for 14 days, after which they were stained with crystal violet. The colonies were counted, and the surviving

[2] = test system: human bronchial epithelial cells; assay: Clonogenic cell survival assay, bronchial epithelial cells with PDGF-AB (Example 2); details: 10 ng/ml PDGF-AB, 14 days
Method: Primary isolated human bronchial epithelial cells (NHBE) (Normal, Human (ATCC® BEAS-2B™)) were cultured up to passage 6. […].
A clonogenic cell survival assay determines the ability of a cell to proliferate indefinitely. The effects of phenylcapsaicin on clonogenic survival of bronchial epithelial cells was investigated by plating the cells with increasing numbers (10^2 to 5×10^4) in 25 cm^2 flasks. SU9518, a known inhibitor for PDGF which has shown the ability to reduce radiation-induced fibroblast and endothelial cell activation, was used as the positive control. The cells were incubated with 0-10 μM of phenylcapsaicin and SU9518 separately in the presence of 10 ng/ml PDGF-AB. The flasks were returned to the incubator for 14 days, after which they were stained with crystal violet. The colonies were counted, and the surviving percentage was determined for clonogenic survival after correcting for plating efficiency.

[3] = test system: human bronchial epithelial cells; assay: Clonogenic cell survival assay, bronchial epithelial cells with PDGF-AB (Example 3); details: 10 ng/ml PDGF-AB, 14 days; for effect on clonogenic survival / PDGF inhibition (words): 0-10 μM
Method: (§1) Primary isolated human bronchial epithelial cells (NHBE) were used in this assay sourced from the American Tissue Culture Collection (Normal, Human (ATCC® BEAS-2B™)) and were cultured up to passage 6. […].
A clonogenic cell survival assay determines the ability of a cell to proliferate indefinitely. Cells were plated with increasing numbers (102 to 5×10^4) in 25 cm^2 flasks. SU9518, SU9518, a known inhibitor PDGF that has shown the ability to reduce radiation-induced fibroblast and endothelial cell activation, and phenylcapsaicin were used as positive controls. The cells were incubated with 0-10 μM (3% DMSO aqueous) of phenylcapsaicin, SU9518, and compounds 1 and 3-7 separately in the presence of 10 ng/ml PDGF-AB (Sigma Aldrich). The flasks were returned to the incubator for 14 days, after which they were stained with crystal violet (Sigma Aldrich). The colonies were counted and the surviving percentage was determined for clonogenic survival after correcting for plating efficiency.

[4] = test system: human bronchial epithelial cells; assay: Clonogenic cell survival assay, bronchial epithelial cells with PDGF-AB (Example 4); details: 10 ng/ml PDGF-AB, 14 days; for effect on clonogenic survival / PDGF inhibition (words): 0-10 μM
Method: as §1
The effects of Phenylcapsaicin (2) on clonogenic survival of bronchial epithelial cells, by plating the cells with increasing numbers (102 to 5×104) in 25 cm^2 flasks were investigated. SU9518* and Phenylcapsaicin were used as positive controls. The cells were incubated with 0-10 μM (3% DMSO aqueous) of Phenylcapsaicin, SU9518, and compounds 8-12 separately in the presence of 10 ng/ml PDGF-AB (Sigma Aldrich). The flasks were returned to the incubator for 14 days, after which they were stained with crystal violet (Sigma Aldrich). The colonies were counted and the surviving percentage was determined for clonogenic survival after correcting for plating efficiency. The synthetic analogs were all calculated at 100% purity for molar concentrations.

| SMILES | effect on clonogenic survival ([1]; 0-10 μM) | surviving fraction of epithelial cells ([1]; 5 μM) [%] | effect on clonogenic survival ([2]; 0-10 μM) | surviving fraction of epithelial cells ([2]; 5 μM) [%] | Clonogenic Survival Assay (percent) ([3]; 0.10 μM) [%] | Clonogenic Survival Assay (percent) ([3]; 0.50 μM) [%] | Clonogenic Survival Assay (percent) ([3]; 1.00 μM) [%] | Clonogenic Survival Assay (percent) ([3]; 2.00 μM) [%] | Clonogenic Survival Assay (percent) ([3]; 5.00 μM) [%] | Clonogenic Survival Assay (percent) ([3]; 10.00 μM) [%] | Clonogenic Survival Assay (percent) ([4]; 0.10 uM) [%] | Clonogenic Survival Assay (percent) ([4]; 0.50 uM) [%] | Clonogenic Survival Assay (percent) ([4]; 1.00 uM) [%] | Clonogenic Survival Assay (percent) ([4]; 2.00 uM) [%] | Clonogenic Survival Assay (percent) ([4]; 5.00 uM) [%] | Clonogenic Survival Assay (percent) ([4]; 10.00 uM) [%] | effect on clonogenic survival / PDGF inhibition (words) [4] | effect on clonogenic survival / PDGF inhibition (words) [3] | effect on clonogenic survival / PDGF inhibition (words) ([3]; listed as capsaicin) | Clonogenic Survival Assay (percent) ([3]; 10.00 μM, listed as capsaicin) [%] |
| --- | --- | --- | --- | --- | --- | --- | --- | --- | --- | --- | --- | --- | --- | --- | --- | --- | --- | --- | --- | --- |
| Cc1[nH]c(/C=C2\C(=O)Nc3ccc(Br)cc32)c(C)c1CCC(=O)O [SU9518, reference compound] | dose dependent reduction in cell survival | 30 | dose dependent reduction in cell survival | 33 | 80 | 65 | 59 | 41 | 33 | 22 | 80 | 65 | 59 | 41 | 33 | 22 |  |  |  |  |
| COc1cc(CNC(=O)CCCCCCc2ccccc2)ccc1O [Compound 8, N-[(4-Hydroxy-3-methoxyphenyl)methyl]7-phenylheptanamide] |  |  |  |  |  |  |  |  |  |  | 97 | 100 | 97 | 95 | 96 | 97 | did not show any reduction in clonogenic cell survival |  |  |  |
| COc1cc(CNC(=O)CCCC/C=C/C(C)C)ccc1O [Compound 1, capsaicin] |  |  |  |  | 97 | 97 | 95 | 96 | 96 | 95 | 97 | 98 | 95 | 96 | 96 | 95 | no inhibition of PDGF was observed | did not show any PDGF inhibition | no inhibition of PDGF was observed | 95 |
| COc1cc(CNC(=O)CCCCC#Cc2ccc([N+](=O)[O-])cc2)ccc1O [Compound 10, N-[(4-Hydroxy-3-methoxyphenyl)methyl]-7-(p-nitrophenyl)-6-heptynamide] |  |  |  |  |  |  |  |  |  |  | 73 | 55 | 51 | 40 | 41 | 39 |  |  |  |  |
| C#CCCCCC(=O)NCc1ccc(O)c(OC)c1 [Compound 9] |  |  |  |  |  |  |  |  |  |  | 100 | 97 | 99 | 96 | 96 | 99 | did not show any reduction in clonogenic cell survival |  |  |  |
